Legend:
[1] = system: human lung tumor cells (A427); experiment: Anchorage-independent growth inhibition assay (colony formation in soft agar); type: cell-based; details: for Expected Colonies: A427 cells, (cells plated)(Surviving Fraction)(Frequency)
Experimental: (§1) An anchorage-independent growth inhibition assay was performed as described in Korytynski, et al. (1996) “The development of an anchorage-independence assay using human lung tumor cells to screen potential chemopreventive agents,” Anticancer Res. 16, 1091–1094; and Sharma, et al. (1997) “The anchorage-independent assay as a screening tool to identify potential chemopreventive agents,” Methods Cell Sci. 19, 9–12. The assay measures the inhibition of colony formation of human lung tumor cells (A427) cells grown in soft agar. In this assay, A427 cells were grown in the presence of the test agent, SR 13196, EGCG or 13-cis-RA Control samples were tested using an equivalent volume of DMSO alone. A concurrent assay for cell survival was also performed.
(§2) Thus, SR 13196 inhibits colony formation of A427 cells in vitro, as well as their survival, and in a dose-dependent manner.

MDA-MB-231 (ER−) = experiment: MTT growth inhibition assay, MDA-MB-231 breast cancer cells; type: cell-based
Experimental: (§3) Compounds of the invention were tested for their ability to inhibit growth in two breast cancer cell lines, MCF-7 (ER+) and MDA-MB-231 (ER−).
(§4) The growth inhibition assays were conducted using routine methods. Briefly, the cells were seeded in 24-well plates at a density of 2000 cells per well in 200 μL of […] growth medium. To each well was added 10 μL of DMSO containing the dissolved test compound; final DMSO concentration in each well was not more than 0.5%. Each test compound was assayed at concentrations of 0.4, 2, 10, and 50 μM. The plates were incubated for eight days, with the media and test solutions replaced every third day. On Day 8, the viable cells were measured by the MTT assay, as described in Mosmann et al. (1983), “Rapid Colorimetric Assay for Cellular Growth and Survival: Application to Proliferation and Cytotoxicity,” J. Immunol. Method. 65:55–63. The optical density at 575 nm of each test well was measured and compared to that for control wells, and the data used to calculate the percentage of growth inhibition at different concentrations. The IC50 value (the concentration of growth inhibitor that results in 50% growth inhibition of the cells in culture relative to control cells not exposed to any growth inhibitor) was determined by plotting dose-response curves.
(§5) The calculated IC50 values are set forth in Table 1, with the results representing the average of at least two experiments conducted for each compound at each of the four concentrations.
(§6) The foregoing procedures were repeated with additional compounds of the invention to evaluate the their ability to inhibit growth in MCF-7 (ER+) and MDA-MB-231 (ER−).

MCF-7 cells = experiment: Cell cycle studies in MCF-7 cells; type: cell-based; details: 10 μM
Text: To establish that the analogs of EGCG also act via the same mechanisms as EGCG itself, the active analog SR 13196 in cell cycle studies in MCF-7 cells was examined.

MCF-7 (ER+) = experiment: MTT growth inhibition assay, MCF-7 breast cancer cells; type: cell-based
Experimental: as §3, §4, §5, §6

in vitro = details: human, Caco-2, pH 7.4
Text: (§7) The Caco-2 human colon adenocarcinoma cell line has become accepted as a predictive model for human intestinal absorption. […] The transport is reported as a permeability coefficient, P(app), which is compared to those of the known standards.

A427 cells = experiment: Concurrent assay for cell survival; type: cell-based, human; details: highest concentration tested (25 μM)
Experimental: as §1, §2

[2] = standards of known oral bioavailability; cited from earlier work
[3] = system: Caco-2 human colon adenocarcinoma cell line; experiment: Caco-2 intestinal permeability model; details: for Papp: Caco-2, pH 7.4
Text: as §7

[4] = Homo sapiens, MDA-MB-231, 192 h, Table 1, 8 days
[5] = Homo sapiens, MCF7, 192 h, Table 1, 8 days
[6] = Table 2 (repeat run with additional compounds), 8 days
[7] = Homo sapiens, MDA-MB-231, 192 h, Table 2 (repeat run with additional compounds), 8 days
[8] = Homo sapiens, MCF7, 192 h, Table 2 (repeat run with additional compounds), 8 days

COc1cc([C@H]2Oc3cc(O)cc(O)c3C[C@H]2OC(=O)c2cc(C)c(O)c(C)c2)cc(OC)c1OC (relative stereo) [SR 13196]
inhibition of colony formation, in words ([1]; A427 cells in soft agar): inhibited colony formation to a much greater extent than either EGCG or 13-cis-RA
Expected Colonies ([1]; 1.56 μM): 277
Expected Colonies ([1]; 3.12 μM): 160
Expected Colonies ([1]; 6.25 μM): 67
Expected Colonies ([1]; 12.5 μM): 52
inhibition at 1.56 µM ([1]; Homo sapiens, A-427, A427 cells in soft agar, 1.56 μM): 4%
inhibition at 3.12 µM ([1]; Homo sapiens, A-427, A427 cells in soft agar, 3.12 μM): 32%
inhibition at 6.25 µM ([1]; Homo sapiens, A-427, A427 cells in soft agar, 6.25 μM): 43%
inhibition at 12.5 µM ([1]; Homo sapiens, A-427, A427 cells in soft agar, 12.5 μM): 46%
inhibition at 25 µM ([1]; Homo sapiens, A-427, A427 cells in soft agar, 25 μM): 81%
IC50 (MDA-MB-231 (ER−); [4]): 19.6 µM
effect on cell cycle (MCF-7 cells): arrests the cell cycle in G1
IC50 (MCF-7 (ER+); [5]): 8.39 µM
Papp at 100 μM (in vitro): 6.82 ± 0.83 ×10⁻⁶ cm/s

CC1=C(/C=C/C(C)=C/C=C/C(C)=C\C(=O)O)C(C)(C)CCC1 [Compound 13-cis-RA, reference compound]
Expected Colonies ([1]; 1.56 μM): 332
Expected Colonies ([1]; 3.12 μM): 320
Expected Colonies ([1]; 6.25 μM): 289
Expected Colonies ([1]; 12.5 μM): 265
Expected Colonies ([1]; 25 μM): 254
surviving cells (A427 cells): 68%

CN1C(=O)CN=C(c2ccccc2)c2cc(Cl)ccc21 [Diazepam, diazepam]
% Absorbed (literature value) [2]: 100%

O=C(O[C@@H]1Cc2c(O)cc(O)cc2O[C@@H]1c1cc(O)c(O)c(O)c1)c1cc(O)c(O)c(O)c1 [EGCG, (−)-epigallocatechin-3-gallate, reference compound]
Expected Colonies ([1]; 1.56 μM): 386
Expected Colonies ([1]; 3.12 μM): 382
Expected Colonies ([1]; 6.25 μM): 378
Expected Colonies ([1]; 12.5 μM): 331
Expected Colonies ([1]; 25 μM): 191
IC50 (MDA-MB-231 (ER−); [6]): 36.9 µM
effect on cell cycle (MCF-7 cells): arrests the cell cycle in G1
IC50 (MCF-7 (ER+); [6]): 37.1 µM
permeability coefficient (Papp), in words ([3]; Caco-2 model, summary of the experiments): low permeability coefficient

Nc1nc(O)c2ncn(COC(CO)CO)c2n1 [Ganciclovir, ganciclovir]
% Absorbed (literature value) [2]: 3%

COc1cc(C2Oc3cc(O)cc(O)c3C[C@H]2OC(=O)c2cc(O)c(O)c(O)c2)cc(OC)c1OC (stereo partly drawn) [SR 13194, trans-5,7-DIHYDROXY-2-(3,4,5-TRIMETHOXY-PHENYL)-3,4-DIHYDRO-2H-CHROMAN-3-YL, 3,4,5-TRIHYDROXY-BENZOIC ACID ESTER]
IC50 (MDA-MB-231 (ER−); [4]): > 100 µM
IC50 (MCF-7 (ER+); [5]): > 100 µM

COc1cc([C@H]2Oc3cc(O)cc(O)c3C[C@H]2OC(=O)c2cc(O)c(O)c(O)c2)cc(OC)c1OC [SR 13195, cis-5,7-DIHYDROXY-2-(3,4,5-TRIMETHOXY-PHENYL)-3,4-DIHYDRO-2H-CHROMAN-3-YL, 3,4,5-TRIHYDROXY-BENZOIC ACID ESTER]
IC50 (MDA-MB-231 (ER−); [4]): > 100 µM
IC50 (MCF-7 (ER+); [5]): > 100 µM

COc1cc(OC)c2c(c1)OC(c1cc(O)c(O)c(O)c1)[C@H](OC(=O)c1cc(O)c(O)c(O)c1)C2 (stereo partly drawn) [SR 13198, trans-5,7-DIMETHOXY-2-(3,4,5-TRIHYDROXY-PHENYL)-3,4-DIHYDRO-2H-CHROMAN-3-YL, 3,4,5-TRIHYDROXY-BENZOIC ACID ESTER]
IC50 (MDA-MB-231 (ER−); [7]): 35.9 µM
IC50 (MCF-7 (ER+); [8]): 42.1 µM

COc1cc(OC)c2c(c1)O[C@H](c1cc(O)c(O)c(O)c1)[C@H](OC(=O)c1cc(C)c(O)c(C)c1)C2 [SR 13200]
IC50 (MDA-MB-231 (ER−); [7]): 22.6 µM
IC50 (MCF-7 (ER+); [8]): 22.9 µM

Cc1cc(C)c2c(c1)OC(c1cc(O)c(O)c(O)c1)[C@H](OC(=O)c1cc(O)c(O)c(O)c1)C2 (stereo partly drawn) [SR 13911]
IC50 (MDA-MB-231 (ER−); [7]): 25.7 µM
IC50 (MCF-7 (ER+); [8]): 23.6 µM
Papp at 100 μM (in vitro): 1.42 ± 1.6 ×10⁻⁶ cm/s

Cc1cc(C)c2c(c1)O[C@H](c1cc(O)c(O)c(O)c1)[C@H](OC(=O)c1cc(O)c(O)c(O)c1)C2 [SR 13912]
IC50 (MDA-MB-231 (ER−); [7]): 53.7 µM
IC50 (MCF-7 (ER+); [8]): 21.8 µM

Cc1cc(C)c2c(c1)O[C@H](c1cc(O)c(O)c(O)c1)[C@H](OC(=O)c1cc(C)c(O)c(C)c1)C2 [SR 13913]
IC50 (MCF-7 (ER+); [8]): 17.2 µM
Papp at 100 μM (in vitro): < 0.06 ×10⁻⁶ cm/s

COc1cc([C@H]2Oc3cc(O)cc(O)c3C[C@H]2OC(=O)c2cc(O)c(O)c(O)c2)cc(OC)c1O [SR 13915]
IC50 (MDA-MB-231 (ER−); [6]): > 100 µM
IC50 (MCF-7 (ER+); [6]): > 100 µM
Papp [3]: 5.17 ± 0.49 ×10⁻⁶ cm/s

Cc1cc(C(=O)O[C@@H]2Cc3c(O)cc(O)cc3O[C@@H]2c2cc(C)c(O)c(C)c2)cc(C)c1O [SR 13916]
IC50 (MDA-MB-231 (ER−); [6]): 10.2 µM
IC50 (MCF-7 (ER+); [6]): 6.61 µM

Cc1cc([C@H]2Oc3cc(O)cc(O)c3CC2OC(=O)c2cc(O)c(O)c(O)c2)cc(C)c1O (stereo partly drawn) [SR 13917]
IC50 (MDA-MB-231 (ER−); [6]): 2.98 µM
IC50 (MCF-7 (ER+); [6]): 6.12 µM

Cc1cc([C@H]2Oc3cc(O)cc(O)c3C[C@H]2OC(=O)c2cc(O)c(O)c(O)c2)cc(C)c1O [SR 13918]
IC50 (MDA-MB-231 (ER−); [6]): 46.8 µM
IC50 (MCF-7 (ER+); [6]): > 100 µM

COc1cc(C(=O)O[C@@H]2Cc3c(C)cc(C)cc3O[C@@H]2c2cc(O)c(O)c(O)c2)cc(OC)c1OC [SR 13919]
IC50 (MDA-MB-231 (ER−); [6]): 7.76 µM
IC50 (MCF-7 (ER+); [6]): 8.35 µM
Papp [3]: < 0.06 ×10⁻⁶ cm/s

COc1cc([C@H]2Oc3cc(O)cc(O)c3C[C@H]2OC(=O)c2cc(C)c(O)c(C)c2)cc(OC)c1O [SR 13920]
IC50 (MDA-MB-231 (ER−); [6]): 9.97 µM
IC50 (MCF-7 (ER+); [6]): 33.1 µM

From US7109236B2, “Analogs of green tea polyphenols as chemotherapeutic and chemopreventive agents” (SRI International, priority 2002, dated 2006)
